“Also recorded” adds a separate entry of the source. Read-outs that look alike come from different tables or passages of the source.
How the values were obtained:
STAT5 irfl-bla TF1 cells = experiment: STAT5 assay (EPO stimulated reporter cells); type: cell-based; settings: Homo sapiens, TF-1; erythropoietin (EPO) 10 ng/mL
Description: Twenty-five μL of a STAT5 irfl-bla TF1 (Invitrogen # K1219) cell suspension was seeded with a density of about 10,000 cells/well in 384-well Black View-plates (PerkinElmer #6007460) with clear bottom in assay medium (Opti-MEM (Invitrogen #11058-021)+0.5% heat inactivated fetal bovine Serum (Invitrogen #10082-147)+1% non-essential amino acids (Invitrogen #11140-050)+1% sodium pyruvate (Invitrogen #11360-070)+1% penicillin/streptomycin (Invitrogen #15140-122)). The cell plates were incubated overnight in a humidified 37° C. air/CO2 (95%/5%) incubator. The following day, 125 nL of solutions of test compounds and reference compounds were transferred to cell plates using the Labcyte Echo 550 liquid handler. The plates were then incubated for 1 h in a humidified 37° C. air/CO2 (95%/5%) incubator. Hereafter recombinant human erythropoietin (EPO) (Invitrogen # PHC9634) was added to the plates also using the Labcyte Echo 550 to a final concentration of 10 ng/mL. The cells were then incubated for 4½-5 h in a humidified 37° C. air/CO2 (95%/5%) incubator. 8 μL of LiveBLAzer substrate mixture (Invitrogen # K1095) were then added to the assay plates, which were then incubated overnight at RT. Fluorescence was then measured: Excitation: 405 nm; Emission: 460 nm (green channel), Emission: 535 nm (blue channel). Background was subtracted in both emission channels and the ratio 460/535 nm was calculated for each well.

[1] = target: panel of 23 Tyrosine kinases, including JAK1, and 68 Serine and Threonine kinases; experiment: Kinase selectivity panel at CARNA Biosciences; type: biochemical; settings: inhibitor concentration approximately 1000 times JAK1 EC50
Description: The kinase selectivity profiles of Example 3 of the present invention as well as Examples 644 and 641 of WO2011086053 were evaluated at CARNA Biosciences Inc. with a panel consisting of 23 Tyrosine kinases, including JAK1 (ABL, CSK, EGFR, EPHA2, EPHB1, EPHB4, FGFR1, FLT3, IGF1R, ITK, JAK1, JAK3, KDR, […], PDGFRα, PDGFRβ, PYK2, SRC, TIE2, TRKA and TYRO3) as well as 68 Serine and Threonine kinases ([…], AKT1, AMPKα1/β1/γ1, AurA, AurB, AurC, BRSK2 ([ATP]=Km value), CaMK1a ([ATP]=Km value), CaMK2a ([ATP]=Km value), CaMK4, CDC2/CycB1, CDC7/ASK, CDK2/CycA2, CDK2/CyE1, CDK3/CyE1 ([ATP]=Km value), CDK4/CyD3, CDK6/CyD3, CDK7/CycH/MAT1, CDK9/CycT1, CHK1, CK1ε, CK2α1/β, CK2α2/β, CLK1, CLK2, DAPK1, DYRK1B, Erk2, GSK3α, GSK3β, HGK, IKKβ, IRAK4 ([ATP]=Km value), JNK2, LOK ([ATP]=Km value), MAPKAP2, MLK1, MLK2, MNK2 ([ATP]=Km value), MST1, MST2 ([ATP]=Km value), NEK1, NEK2, NEK6, NEK7, NEK9, p38α, p70S6K, PAK1 ([ATP]=Km value), PAK2, PAK5 ([ATP]=Km value), PBK, PDK1, PIM1, PIM2, PKACα, PKCα, OKD2, PKN1 ([ATP]=Km value), PLK1, PLK2 ([ATP]=Km value), ROCK1, RSK1, SGK, skMLCK ([ATP]=Km value) and TSSK1). […] The percentage of inhibition was measured at an inhibitor concentration of approximately 1000 times JAK1 EC50.

CYP2C9 = CYP2C9 (Homo sapiens (Human), UniProt P11712); experiment: Reversible CYP inhibition, 2C9; type: in vitro ADME; settings: up to 50 μM for Example 3, up to 25 μM for Examples 644 and 641
Description: (§1) Reversible CYP inhibition, time dependent CYP inhibition (TDI) and CYP induction was tested at Cyprotex PLC according to authority guidance.

CYP1A2 = CYP1A2 (Homo sapiens (Human), UniProt P05177); experiment: Reversible CYP inhibition, 1A2; type: in vitro ADME
Description: as §1

[2] = reversible, up to 50 μM for Example 3, up to 25 μM for Examples 644 and 641, read-out: 1A2 IC50

Sequence of CYP1A2 (P05177 whole entry): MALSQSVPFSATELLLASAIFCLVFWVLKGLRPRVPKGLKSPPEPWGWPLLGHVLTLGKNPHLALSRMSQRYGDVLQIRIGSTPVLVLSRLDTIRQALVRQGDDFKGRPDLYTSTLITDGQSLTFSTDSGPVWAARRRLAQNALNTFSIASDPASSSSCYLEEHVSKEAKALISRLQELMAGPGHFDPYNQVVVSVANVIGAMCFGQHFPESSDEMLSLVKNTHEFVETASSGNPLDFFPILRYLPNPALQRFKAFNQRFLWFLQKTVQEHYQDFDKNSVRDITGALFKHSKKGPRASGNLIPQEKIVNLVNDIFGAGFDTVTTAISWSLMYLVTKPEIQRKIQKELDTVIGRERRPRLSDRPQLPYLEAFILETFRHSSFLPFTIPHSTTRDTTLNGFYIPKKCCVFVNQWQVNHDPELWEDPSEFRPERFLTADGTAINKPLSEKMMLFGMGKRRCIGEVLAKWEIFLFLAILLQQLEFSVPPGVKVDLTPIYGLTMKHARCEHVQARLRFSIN
Sequence of CYP2C9 (P11712 whole entry): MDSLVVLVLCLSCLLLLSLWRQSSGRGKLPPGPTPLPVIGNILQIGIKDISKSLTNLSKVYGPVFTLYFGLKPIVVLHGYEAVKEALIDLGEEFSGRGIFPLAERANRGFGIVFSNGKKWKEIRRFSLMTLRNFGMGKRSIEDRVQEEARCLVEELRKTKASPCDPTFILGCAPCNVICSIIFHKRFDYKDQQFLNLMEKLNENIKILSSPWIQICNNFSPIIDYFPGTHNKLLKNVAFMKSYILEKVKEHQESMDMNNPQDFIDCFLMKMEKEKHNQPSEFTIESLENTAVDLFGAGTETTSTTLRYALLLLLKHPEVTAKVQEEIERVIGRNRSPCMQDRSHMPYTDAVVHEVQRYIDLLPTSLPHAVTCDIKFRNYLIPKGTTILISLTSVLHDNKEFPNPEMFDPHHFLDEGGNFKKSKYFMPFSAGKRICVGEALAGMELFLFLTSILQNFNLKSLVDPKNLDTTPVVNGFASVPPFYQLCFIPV

IC50 (CYP1A2) | Compound | EC50 (STAT5 irfl-bla TF1 cells) | Kinases of the panel inhibited by 50% or more (summary) [1] | Tyrosine kinases inhibited by 50% or more at an ATP concentration of 1 mM (n ≥ 2) [1] | IC50 (CYP2C9) | IC50 (CYP1A2; [2]) | Serine and Threonine kinases inhibited by 50% or more (n ≥ 2) [1]
– | CNc1cc2c(cn1)nc([C@@H](C)O)n2[C@H]1CC[C@H](CC#N)CC1 [Example 3, trans-2-[4-[2-[(1R)-1-Hydroxyethyl]-6-(methylamino)imidazo[4,5-c]pyridin-1-yl]cyclohexyl]acetonitrile] | 6.42 µM | none of the tested kinases except JAK1 were inhibited by more than 50% | JAK1 | > 50 µM | > 50 µM | –
– | C[C@@H](O)c1nc2cnc3[nH]ccc3c2n1[C@H]1CC[C@H](CC#N)CC1 [Example 644 of WO2011086053] | 0.123 µM | inhibited nine other kinases besides JAK1 by 50% or more | JAK1 and FGFR1 and FLT3 and KDR and PDGFRα and PDGFRβ | > 25 µM | > 25 µM | BRSK2, [ATP] = 50 μM; also recorded: LOK, [ATP] = 100 μM; also recorded: MST2, [ATP] = 75 μM; also recorded: PKN1, [ATP] = 25 μM
> 25 µM | C[C@@H](O)c1nc2cnc3[nH]ccc3c2n1[C@H]1CC[C@H](C#N)CC1 [Example 641 of WO2011086053] | 5.74 µM | inhibited nine other kinases besides JAK1 by 50% or more | JAK1 and FGFR1 and FLT3 and KDR and PDGFRα | > 25 µM | – | BRSK2, [ATP] = 50 μM; also recorded: LOK, [ATP] = 100 μM; also recorded: MST1, [ATP] = 1 mM; also recorded: MST2, [ATP] = 75 μM; also recorded: PKN1, [ATP] = 25 μM
